Assay results from US20140213508A1, “ANTIVIRAL MACROCYCLES” (priority 2012, published 2014).
Where two headings read alike, the source gives them in different places. Numbered stars: 1 amine (or outer) side, 2 acyl side, 3 side chain; on linkers, the order of the positions; unused ones are H or OH. Square brackets hold non-standard residues; d marks the D form. Peptide text beside a SMILES is read from it. ξ: configuration not given here. X1 = CN(C)C1(CS[C@H](C(=O)[*:2])N(C)[*:1])CCC1; ξNMeBmt = C/C=C/C[C@@H](C)[C@@H](O)C(NC)C(=O)O; X2 = CC(C)[C@H](C(=O)[*:2])N(Cc1ccccc1)[*:1]; X3 = CCNC1(CS[C@H](C(=O)[*:2])N(C)[*:1])CC1; X4 = CNC1(CS[C@H](C(=O)[*:2])N(C)[*:1])CC1; NMeLeu(4-OH) = CN[C@@H](CC(C)(C)O)C(=O)O; NMeL = CN[C@@H](CC(C)C)C(=O)O; dNMeL = CN[C@H](CC(C)C)C(=O)O; dNMeV = CN[C@@H](C(=O)O)C(C)C; dAbu = CC[C@@H](N)C(=O)O

How the values were obtained:
[1] = tested on: HCV RNA replicon Genotype 1b; test: HCV replicon assay, 1b replicon (LUC); settings: Hepatitis C virus, 72 h, read-out: mean EC50 Genotype 1b
From the text: Compounds were examined in the human hepatoma cell a HCV RNA replicon containing a stable luciferase (LUC) reporter. The HCV RNA replicon ET contains the 5′ end of HCV (with the HCV Internal Ribosome Entry Site (IRES) and the first few amino acids of the HCV core protein) which drives the production of neomycin phosphotransferase (NeoR) fusion protein. A luciferase reported is incorporated into 1b replicon. The EMCV IRES element controls the translation of the HCV structural proteins NS3-NS5. The NS3 protein cleaves the HCV polyprotein to release the mature NS3, NS4A, NS4B, NS5A and NS5B proteins that are required for HCV replication. At the 3′ end of the replicon is the authentic 3′ NTR of HCV. The activity of the LUC reporter is directly proportional to HCV replication levels and positive-control antiviral compounds produce a reproducible antiviral response using the LUC endpoint.
The compounds were dissolved in DMSO at six half-log concentrations. HCV replicon cells were plated out into 96 well plates dedicated for the analysis of cell numbers (cytotoxicity) or antiviral activity and the next day the compounds were added to the appropriate wells. […] Compound EC50 and EC90 values were derived from HCV RNA levels assessed as HCV RNA replicon derived LUC activity. […] Compound IC50 and IC90 values were calculated using a colorimetric assay as an indication of cell numbers and cytotoxicity. […]

Cyclophilin B = Cyclophilin B (Homo sapiens, UniProt P23284); test: Cyclophilin binding competitive ELISA; settings: human recombinant cyclophilin
From the text: Plates were washed as described above. […] Plates were washed as described above.

Cyclophilin A = Cyclophilin A (Homo sapiens, UniProt P62937); test: Cyclophilin binding competitive ELISA; settings: human recombinant cyclophilin
[2] = tested on: IFN-α production in human peripheral blood mononuclear cells; test: IFN-α production in human PBMCs (ELISA); format: cell-based; settings: 2 μM for 24 hours, individual wells
Experimental: Cryopreserved commercial or previously isolated PBMCs from HCV donors cryopreserved in RPMI1640)/Fetal Bovine/DMSO solution (50/40/10 v/v) were tested with compounds provided herein. […]
PBMC were cultured for 24 hours at 37° C. in RPMI cell culture medium in flat bottom 48 well-plates. Each well received 180 μL of cell suspension (2×10^6 cells/mL). […] At the end of the incubation, the plates are centrifuged at 200 times g for 5 minutes. The cell supernatants are collected and assayed by ELISA for cytokines IFN-α's (the detection reagent recognized 14 of the 15 known human IFN-α subtypes) and IFN-λ1 (IL-29). The cell pellet is washed twice with cold PBS and ATP content are determined by adding 100 μL per well of the Cell Titer Glo® (Promega, Madison, Wis.). Plates are then placed at −80° C. until protein analysis. For the protein analysis, plates are thawed, scraped and the protein content of the cell suspension determined using BCA Protein Assay Kit (23227, ThermoScientific, Rockford Ill.).

[3] = tested on: IFN-λ1 (IL-29) production in human peripheral blood mononuclear cells; test: IL-29 production in human PBMCs (ELISA); format: cell-based; settings: 2 μM for 24 hours; for pg/mL IL29: individual wells; for pg/mL IL29 Av.: average
[4] = tested on: IFN-α production in human peripheral blood mononuclear cells; test: IFN-α production in human PBMCs (ELISA); format: cell-based; settings: 2 μM for 24 hours; for pg/mL IFNα Av.: average; for pg/mL IFNα: individual wells
[5] = tested on: Dengue virus DENV1 strain; test: Dengue virus infection and replication assay in HuH7 cells; format: cell-based; settings: read-out: IC50 Dengue virus production
Experimental: Compounds A, B, and F were tested for activity against Dengue virus in a cell-based assay of viral infection and replication. HuH7 cells were infected with the DENV1 strain (multiplicity of infection=0.1). After a 1 hour incubation to allow viral attachment and infection, compounds were added (at concentrations of 1, 3 and 9 μM, in triplicate). Incubation was continued for 5 days, and cells and media were then harvested for analysis. Viral replication was assessed by a real-time RT-PCR assay for virus present in the media, and cells were assayed for metabolic viability (MTT assay).

[6] = tested on: HBV entry into cultured hepatocytes (HepaRG cells); test: Inhibition of HBV entry into HepaRG cells; format: cell-based; settings: Hepatitis B virus, 288 h, read-out: IC50 HBV entry
[7] = tested on: Influenza A H1N1 (A/CA/05/09); test: Anti-influenza virus cytoprotection assay in MDCK cells; format: cell-based; settings: in triplicate, read-out: IC50 against Influenza A H1N1
[8] = donor CT2 (test 3) (HCV, cryopreserved PBMCs)
[9] = donor Healthy 2, background subtracted
[10] = HepaRG cells, HBs level by ELISA 12 days post-infection

Cyclophilin A, sequence (P62937 whole entry): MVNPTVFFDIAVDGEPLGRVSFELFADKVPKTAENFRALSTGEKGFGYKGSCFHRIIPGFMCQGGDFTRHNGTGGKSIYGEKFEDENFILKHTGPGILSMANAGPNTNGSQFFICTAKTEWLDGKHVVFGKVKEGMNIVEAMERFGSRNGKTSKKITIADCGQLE
Cyclophilin B, sequence (P23284 34-216): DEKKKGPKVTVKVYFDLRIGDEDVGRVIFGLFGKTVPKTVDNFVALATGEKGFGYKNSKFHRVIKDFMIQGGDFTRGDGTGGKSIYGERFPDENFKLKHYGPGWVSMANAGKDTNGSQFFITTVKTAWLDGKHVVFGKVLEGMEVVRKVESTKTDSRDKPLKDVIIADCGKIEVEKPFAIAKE

| SMILES | EC50 [1] [µM] | IC50 (Cyclophilin B) [µM] | IC50 (Cyclophilin A) [µM] | pg/mL IFNα [2, 8] [pg/mL] | pg/mL IL29 ([3]; donor Healthy 1) | pg/mL IL29 Av. ([3]; donor Healthy 3) | pg/mL IL29 ([3]; donor Healthy 3) | pg/mL IFNα Av. ([4]; donor Healthy 1) | pg/mL IFNα ([4]; donor Healthy 1) | pg/mL IFNα Av. ([4]; donor Healthy 2) | pg/mL IFNα ([4]; donor Healthy 2) | pg/mL IFNα Av. ([4]; donor Healthy 3) | pg/mL IFNα ([4]; donor Healthy 3) | IC50 [6, 10] [µM] | IC50 ([5]; DENV1, Huh-7, 120 h) [µM] | other results |
| --- | --- | --- | --- | --- | --- | --- | --- | --- | --- | --- | --- | --- | --- | --- | --- | --- |
| C/C=C/C[C@@H](C)[C@@H](O)C1C(=O)N[C@H](CC)C(=O)N(C)[C@H](SCC2(NC)CC2)C(=O)N(C)[C@@H](CC(C)(C)O)C(=O)N[C@H](C(C)C)C(=O)N(C)[C@H](CC(C)C)C(=O)N[C@H](C)C(=O)N[C@@H](C)C(=O)N(C)[C@H](CC(C)C)C(=O)N(C)[C@H](CC(C)C)C(=O)N(C)[C@H](C(C)C)C(=O)N1C (stereo partly shown) [Compound G] (cyclo(A[dNMeL][dNMeL][dNMeV][ξNMeBmt][dAbu][X4][NMeLeu(4-OH)][dV][dNMeL][dA])) | 0.06 | 0.05 | 0.029 |  |  |  |  |  |  |  |  |  |  |  |  |  |
| CC=CC[C@@H](C)[C@@H](O)C1C(=O)NC(CC)C(=O)N(C)C(SCC2(N(C)C(C)C)CC2)C(=O)N(C)[C@@H](CC(C)(C)O)C(=O)NC(C(C)C)C(=O)N(C)C(CC(C)C)C(=O)NC(C)C(=O)NC(C)C(=O)N(C)C(CC(C)C)C(=O)N(C)C(CC(C)C)C(=O)N(C)C(C(C)C)C(=O)N1C (stereo in doubt) [Compound B] |  |  |  | 8 | 20 pg/mL and <LOQ | <LOQ | <LOQ | <LOQ | <LOQ | <LOQ | <LOQ | <LOQ | <LOQ | < 1 |  | pg/mL IL29 Av. [3, 9]: <LOQ; pg/mL IL29 [3, 9]: <LOQ; IC50 ([5]; Huh-7, 120 h, HuH7 cells, DENV1, 5 days, real-time RT-PCR of media): 1 µM |
| C/C=C/C[C@@H](C)[C@@H](O)C1C(=O)N[C@H](CC)C(=O)N(C)[C@H](SCC2(NCC)CC2)C(=O)N(C)[C@@H](CC(C)(C)O)C(=O)N[C@H](C(C)C)C(=O)N(C)[C@H](CC(C)C)C(=O)N[C@H](C)C(=O)N[C@@H](C)C(=O)N(C)[C@H](CC(C)C)C(=O)N(C)[C@H](CC(C)C)C(=O)N(C)[C@H](C(C)C)C(=O)N1C (stereo partly shown) [Compound H] (cyclo(A[dNMeL][dNMeL][dNMeV][ξNMeBmt][dAbu][X3][NMeLeu(4-OH)][dV][dNMeL][dA])) | 0.04 | 0.016 | 0.014 |  |  |  |  |  |  |  |  |  |  |  |  |  |
| CC=CC[C@@H](C)[C@@H](O)C1C(=O)NC(CC)C(=O)N(C)C(SCC2(N(C)C)CC2)C(=O)N(C)[C@@H](CC(C)(C)O)C(=O)NC(C(C)C)C(=O)N(C)C(CC(C)C)C(=O)NC(C)C(=O)NC(C)C(=O)N(C)C(CC(C)C)C(=O)N(C)C(CC(C)C)C(=O)N(C)C(C(C)C)C(=O)N1C (stereo in doubt) [Compound A] |  |  |  | 7 | <LOQ | <LOQ | <LOQ | <LOQ | <LOQ | <LOQ | <LOQ | <LOQ | <LOQ | 1.6 | > 9 | pg/mL IFNα ([2]; donor CT2 (HCV), first test): 4 pg/mL; pg/mL IL29 Av. ([3]; donor Healthy 1): <LOQ |
| C/C=C/C[C@@H](C)[C@@H](O)C1C(=O)N[C@H](CC)C(=O)N(C)[C@H](SCC2(N(C)C)CCC2)C(=O)N(C)[C@@H](CC(C)C)C(=O)N(Cc2ccccc2)[C@H](C(C)C)C(=O)N(C)[C@H](CC(C)C)C(=O)N[C@H](C)C(=O)N[C@@H](C)C(=O)N(C)[C@H](CC(C)C)C(=O)N(C)[C@H](CC(C)C)C(=O)N(C)[C@H](C(C)C)C(=O)N1C (stereo partly shown) [Compound F] (cyclo(A[dNMeL][dNMeL][dNMeV][ξNMeBmt][dAbu][X1][NMeL][X2][dNMeL][dA])) |  |  |  |  |  |  |  |  |  |  |  |  |  |  | 1.4 | IC50 [7]: 5.4 µM; IC50 ([6]; HepaRG): < 1 µM |
